Laboratory results reported in article PMC8335727 (Inorganic Chemistry, 2021).
Like-named read-outs stand apart in the source and are kept apart here.

Experiments:
[1] = ref [67]; cited from earlier work
[2] = system: SW480, MES-SA, MES-SA/Dx5, HL60, 41M, SK-BR-3; design: method as in PMID 32336116, PMID 22189939, PMID 31250199; settings: several human cancer cells; ref [36],[58],[80]; read-out: IC50 values reported; cited from earlier work
[3] = system: Colo320; design: method as in doi:10.1039/D0NJ01070G; settings: 72 h of exposure; ref [77]; cited from earlier work
[4] = system: Colo205; design: method as in doi:10.1039/D0NJ01070G; settings: 72 h of exposure; ref [77]; cited from earlier work
[5] = system: MRC-5; design: method as in doi:10.1039/D0NJ01070G; settings: 72 h of exposure; ref [77]; cited from earlier work
[6] = system: SW480 cells; test: Cell cycle distribution by flow cytometry; type: cell-based, human; settings: 0.01 μM; 24 h
Text: […] TEXT PRINTED IN THE PICTURE: (A) no label printed: S: 27.7% | (B) no label printed: S: 33.8% | (C) no label printed: S: 44.0% | (D) no label printed: S: 46.5% DOUBTS OF THE COPYIST ABOUT THIS PICTURE: No substance labels are printed in the picture, only the panel letters A-D. / The phase label "S" is printed only in panel A. Applying it to the percentages in panels B, C and D is assumed from where the marker line sits.

[7] = system: MRC-5; test: MTT cytotoxicity assay, MRC-5; type: cell-based; settings: Homo sapiens, MRC5, 72 h of exposure
Procedure: (§1) 2.5. In vitro cell studies
(§2) 2.5.1. Cell lines and culture conditions
All cell culture reagents were obtained from Sigma-Aldrich and plastic ware from Sarstedt […]
(§3) MRC-5 human embryonal lung fibroblast cell line (ATCC CCL-171) was purchased from LGC
(§4) Promochem, Teddington, UK. The cell line was cultured in Eagle’s Minimal Essential Medi um
(§5) (EMEM, containing 4.5 g/L glucose) supplemented with a non-essential amino acid mixture, a
(§6) selection of vitamins and 10% heat-inactivated fetal bovine serum. The cells were incubated at
(§7) 37°C, in a 5% CO2, 95% air atmosphere. All cell lines were detached with Trypsin-Versene
(§8) (EDTA) solution for 5 min at 37 °C.
(§9) The tested compounds were dissolved in DMSO using 10 mM concentration. Then stock solutions
(§10) were diluted in complete culture medium in 96-well microtiter plates, and two-fold serial dilutions
(§11) of compounds were prepared in 100 µL of RPMI 1640, horizontally. The semi-adherent colonic
(§12) adenocarcinoma cells were treated with Trypsin -Versene (EDTA) solution. They were adjusted to
(§13) a density of 1×10^4 cells in 100 µL of RPMI 1640 medium, and were added to each well, with the
(§14) exception of the medium control wells. The final volume of the wells containing compounds and
(§15) cells was 200 µL. The culture were incubated at 37 °C for 72 h; at the end of the incubation period,
(§16) 20 µL of MTT solution (from a stock solution of 5 mg/mL) were added to each well. After
(§17) incubation at 37 °C for 4 h, 100 µL of SDS solution (10% in 0.01 M HCI) were added to each well
(§18) and the plates were further incubated at 37 °C overnight. The cell growth was determined using
(§19) both methods by measuring the optical density (OD) at 450 nm (ref. 620 nm) with a Multiscan EX
(§20) ELISA reader. Inhibition of the cell growth (expressed as IC 50: inhibitory concentration that
(§21) reduces by 50% the growth of the cells exposed to the tested compounds) was determined from
(§22) the sigmoid curve where 100 – ((ODsample ‒ ODmedium control)/(ODcell control ‒ ODmedium control)) × 100
(§23) values were plotted against the logarithm of compound concentrations. […]

[8] = molecular target: T1, mouse R2 RNR protein (Mus musculus, UniProt P11157); test: Tyrosyl radical reduction in mouse R2 RNR protein (EPR); type: biochemical; settings: 20 μM compound; for effect on the tyrosyl radical content in the presence of DTT: 2 mM DTT; for effect on the tyrosyl radical in the absence of DTT: no DTT
T1 construct: made in house
T1 sequence (P11157 1-390): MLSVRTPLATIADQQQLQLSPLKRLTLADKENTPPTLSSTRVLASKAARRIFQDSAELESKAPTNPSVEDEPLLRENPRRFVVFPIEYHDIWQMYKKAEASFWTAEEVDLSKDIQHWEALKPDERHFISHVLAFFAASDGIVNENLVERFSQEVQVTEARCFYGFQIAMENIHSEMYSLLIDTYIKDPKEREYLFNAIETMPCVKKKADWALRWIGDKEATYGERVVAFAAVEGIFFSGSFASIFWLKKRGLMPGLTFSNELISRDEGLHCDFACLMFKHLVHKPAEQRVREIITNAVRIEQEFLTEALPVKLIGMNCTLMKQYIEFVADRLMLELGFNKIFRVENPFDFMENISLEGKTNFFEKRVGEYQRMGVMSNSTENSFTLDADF
Procedure: The time-dependent tyrosyl radical reduction in mR2 RNR by equimolar concentrations of TSCs and their respective copper(II) complexes, under reducing conditions, is shown in Figure 15. […] The favorable impact of the copper(II) coordination on the HL^2 inhibitory activity is quite obvious, when the ability to quench the tyrosyl radical by HL^2 is compared to that of 2′.
The samples contained 20 μM mR2 in 50 mM HEPES buffer, pH 7.60/100 mM KCl, 20 μM compound in 1% (v/v) DMSO/H2O, and 2 mM DTT. […]
2.6. Tyrosyl radical reduction in mouse R2 RNR protein
The tyrosyl radical reduction in mR2 protein by HL1, HL2, HL3, Cu(HL1)Cl2, [Cu(L2)Cl],
Cu(HL3)Cl2, HL1a’, HL1a’’, and HL2c´·CH3COOH was measured by EPR spectroscopy at 30 K,
on a Bruker Elexsys II E540 EPR spectrometer with an Oxford Instruments ER 4112HV helium
cryostat, as described previously.12,13 mR2 protein was expressed, purified, and iron -reconstituted
as described previously, 14 and passed through a 5 mL HiTrap desalting column (GE Healthcare)
(§24) 0.76 tyrosyl radical/polypeptide. Samples containing 20 µM mR2 in 50 mM HEPES buffer, pH
(§25) 7.50/100 mM NaCl, and 20 µM respective compound in 1% (v/v) DMSO/H2O, and 2 mM
dithiothreitol (DTT) were incubated for indicated times and quickly frozen in cold isopentane. The
same samples were used for repeated incubations at room temperature. […]
Furthermore, the intrinsic reaction coordinate (IRC) analysis was
performed to authenticate that the transition state pertains to the desired reaction coordinate. The
IRC calculations were done at the B3LYP/6-311++G(d,p) level of theory. Molecular orbitals were
drawn using Molekel software.17
3. Schemes for assignment of resonances in HL1 – HL3 and their isomers
Scheme S1. The atom numbering for the assignment of resonances in HL1 – HL3.
(1 picture or pasted object on this page, not shown here)

[9] = system: Colo320; test: MTT cytotoxicity assay, Colo320; type: cell-based; settings: Homo sapiens, COLO 320, 72 h of exposure
Procedure: (§26) The in vitro cytotoxicity of the TSCs HL^1–HL^3, copper(II) complexes Cu(HL^1)Cl2, [Cu(L^2)Cl], and Cu(HL^3)Cl2, and oxidized TSCs HL^1a′, HL^1a″, and HL^2c′·CH3COOH was tested in the doxorubicin-sensitive Colo205 and the multidrug-resistant Colo320 human colonic adenocarcinoma cell lines as well as in normal human embryonal lung fibroblast cells (MRC-5) by the colorimetric MTT assay. […]
as §1, §2
(§27) All cell culture reagents were obtained from Sigma-Aldrich and plastic ware from Sarstedt
(§28) (Germany). Doxorubicin-sensitive human colonic Colo 205 and multidrug resistant
(§29) Colo 320/MDR-LRP adenocarcinoma cell lines were purchased from LGC Promochem,
(§30) Teddington, UK. The cells were cultured in Roswell Park Memorial Institute (RPMI) 1640
(§31) medium supplemented with 10% heat-inactivated fetal bovine serum, 2 mM L-glutamine, 1 mM
(§32) Na-pyruvate and 100 mM Hepes. The cell lines were incubated at 37°C, in a 5% CO2, 95% air
as §3, §4, §5, §6, §7, §8, §9, §10, §11, §12, §13, §14, §15, §16, §17, §18, §19, §20, §21, §22, §23, §24, §25

[10] = system: Colo205; test: MTT cytotoxicity assay, Colo205; type: cell-based; settings: Homo sapiens, COLO 205, 72 h of exposure
Procedure: as §26, §1, §2, §27, §28, §29, §30, §31, §32, §3, §4, §5, §6, §7, §8, §9, §10, §11, §12, §13, §14, §15, §16, §17, §18, §19, §20, §21, §22, §23, §24, §25

In the case of `C/C(=N\NC(N)=S)c1ccccn1` [AcTSC, 2-acetylpyridine TSC], the “log D7.4” value [1] is given as “+1.02” and the IC50 [2] is given as 2.5 to 3.6 µM.

In the case of `[Cl][Cu][Cl]` [CuCl2, copper(II) chloride], the IC50 [3] is given as 20 µM, the IC50 [4] is given as 19.7 µM and the IC50 [5] is given as 24.5 µM.

In the case of `NC(=S)NN=Cc1ccccn1` [FTSC, 2-formylpyridine TSC], the “log D7.4” value [1] is listed as “+0.73” and the IC50 [2] is listed as 1.9 to 10.6 µM.

Work on `Nc1ccn([C@@H]2O[C@H](CO)[C@@H](O)C2(F)F)c(=O)n1` [Gemcitabine, reference compound] yielded a G1 phase cells [6] of 26.8% and a S phase cells [6] of 62.3%.

For `Cc1cc(Nc2nnc(-c3ccccn3)s2)cc(C)c1O` [HL^1a′], the IC50 [7] was greater than 25 µM, the “effect on the tyrosyl radical content in the presence of DTT” value [8] was “cause an increase in the radical content” and the “effect on the tyrosyl radical in the absence of DTT” value [8] was “do not have an effect”. The IC50 [9] was greater than 25 µM and the IC50 [10] was greater than 25 µM.

With `CC1=CC(=Nc2nnc(-c3ccccn3)s2)C=C(C)C1=O` [HL^1a″] the IC50 [7] was greater than 25 µM, the “effect on the tyrosyl radical content in the presence of DTT” value [8] was “cause an increase in the radical content” and the “effect on the tyrosyl radical in the absence of DTT” value [8] was “do not have an effect”. It also gave an IC50 [9] greater than 25 µM and an IC50 [10] greater than 25 µM.
